Several values for one entry are separate records, joined by “and”; a condition that tells them apart may be missing. Identical values can stand only once. Counter-ions that a name gives are not always drawn. Like-named read-outs stand apart in the source and are kept apart here. One block for each molecule: values may come before it.
Experiments:
[1] = target: recombinant human His-tagged MDM2 protein (residues 1-118) (Homo sapiens (Human), UniProt Q00987); assay: Fluorescence-polarization MDM2 binding assay (Example 2); conditions: Table 2A; no unit in the cell (μM unless otherwise indicated)
Sequence of recombinant human His-tagged MDM2 protein (residues 1-118) (Q00987 1-118): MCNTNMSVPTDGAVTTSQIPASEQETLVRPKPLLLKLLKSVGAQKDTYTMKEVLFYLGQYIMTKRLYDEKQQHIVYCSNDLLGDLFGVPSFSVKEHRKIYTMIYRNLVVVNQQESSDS

[2] = tested on: SJSA-1 (p53 wild-type); assay: Cell growth assay (WST-8); format: cell-based
[3] = tested on: HCT-116 (p53 wild-type); assay: Cell growth assay (WST-8); format: cell-based, human
[4] = tested on: LNCAP (p53 wild-type); assay: Cell growth assay (WST-8); format: cell-based, human
[5] = tested on: HCT-116 (p53—/—); assay: Cell growth assay (WST-8); format: cell-based
[6] = tested on: PC-3 (deleted p53); assay: Cell growth assay (WST-8); format: cell-based
[7] = tested on: SJSA-1 (osteosarcoma) tumors; assay: In vivo efficacy, SJSA-1 xenograft model; design: species or system mice; conditions: single 200 mg/kg dose (QD1 treatment) versus QD7 treatment; FIG. 22
Procedure: A cell sample was mixed 1:1 with Trypan Blue (GIBCO™, Invitrogen Corp.) and counted on a hemocytometer to determine the number of live/dead cells. Cells were washed once with 1×PBS (GIBCO™, Invitrogen Corp.) and resuspended in PBS. […] Cells were injected s.c. into the flank region of each mouse using a 27 gauge needle. The size of tumors growing in the mice was measured in two dimensions using calipers. Tumor volume (mm^3)=(A×B^2)/2 where A and B are the tumor length and width (in mm), respectively. During treatment, tumor volume and body weight was measured three times a week. After the treatment was stopped, tumor volume (FIGS. 17, 20, 22, and 23) and body weight (FIGS. 18 and 21) was measured at least once a week. Mice were kept for an additional 60 days for further observation of tumor growth and toxicity. […] Before treatment began, tumors were allowed to grow to 60-140 mm^3 in volume, at which point the blood vessel supplies to the tumor should have been established. […] The Control group received vehicle alone (10% PEG 400:3% Cremophor:87% PBS).

[8] = tested on: prostate cancer cell line 22Rv1; assay: Growth inhibition assay (Celltiter-Glo), 22Rv1; format: cell-based; conditions: Homo sapiens, read-out: IC50 growth inhibition
[9] = tested on: H1299; assay: Anti-proliferative ATP assay; format: cell-based; conditions: Homo sapiens, NCI-H1299, lung, p53 —/—
[10] = tested on: U2OS; assay: Anti-proliferative ATP assay; format: cell-based; conditions: Homo sapiens, bone, p53 WT/WT
[11] = tested on: SJSA1; assay: Anti-proliferative ATP assay; format: cell-based; conditions: Homo sapiens, SJSA-1, bone, p53 WT/WT, MDM2 amplified
[12] = tested on: HCT116; assay: Anti-proliferative ATP assay; format: cell-based; conditions: Homo sapiens, HCT-116, colon, p53 WT/WT
[13] = tested on: RKO; assay: Anti-proliferative ATP assay; format: cell-based; conditions: Homo sapiens, colon, p53 WT/WT
[14] = tested on: 22RV1; assay: Anti-proliferative ATP assay; format: cell-based; conditions: Homo sapiens, prostate, p53 WT/MUT
[15] = tested on: LnCap; assay: Anti-proliferative ATP assay; format: cell-based; conditions: Homo sapiens, prostate, p53 WT/WT
[16] = tested on: JAR; assay: Anti-proliferative ATP assay; format: cell-based; conditions: placenta, p53 WT/WT, MDM2 amplified
[17] = tested on: CCF-STTG1; assay: Anti-proliferative ATP assay; format: cell-based; conditions: Homo sapiens, CNS, p53 WT/WT, MDM2 amplified
[18] = tested on: Capan2; assay: Anti-proliferative ATP assay; format: cell-based; conditions: Homo sapiens, Capan-2, pancreas, p53 —/—
[19] = tested on: MCF7; assay: Anti-proliferative ATP assay; format: cell-based; conditions: Homo sapiens, breast, p53 WT/WT
[20] = tested on: Y79; assay: Anti-proliferative ATP assay; format: cell-based; conditions: Homo sapiens, retinoblastome, p53 WT/WT, Rb mutated
[21] = tested on: SNU-1; assay: Anti-proliferative ATP assay; format: cell-based; conditions: Homo sapiens, SNU1, gastric, p53 WT/WT, KRAS mut
[22] = tested on: MKN45; assay: Anti-proliferative ATP assay; format: cell-based; conditions: Homo sapiens, MKN-45, gastric, p53 WT/WT, Met amplified
[23] = tested on: Hs746T; assay: Anti-proliferative ATP assay; format: cell-based; conditions: Homo sapiens, gastric, Met amplified
[24] = tested on: SNU-5; assay: Anti-proliferative ATP assay; format: cell-based; conditions: Homo sapiens, gastric, Met amplified
[25] = tested on: MOLM13; assay: Anti-proliferative ATP assay; format: cell-based; conditions: Homo sapiens, MOLM-13, AML, p53 WT/WT, FLT3-ITD
Procedure: The anti-proliferative IC50 was determined by ATP assay.

[26] = tested on: MV4; 11; assay: Anti-proliferative ATP assay; format: cell-based; conditions: Homo sapiens, AML, p53 WT/WT, FLT3-ITD
[27] = tested on: RS4; 11; assay: Anti-proliferative ATP assay; format: cell-based; conditions: Homo sapiens, ALL, p53 WT/WT
[28] = tested on: LY3; assay: Anti-proliferative ATP assay; format: cell-based; conditions: ABC-DLBCL, p53 WT/WT
[29] = tested on: Ly10; assay: Anti-proliferative ATP assay; format: cell-based; conditions: ABC-DLBCL, p53 WT/WT
[30] = tested on: Ly7; assay: Anti-proliferative ATP assay; format: cell-based; conditions: GCB-DLBCL, p53 WT/MUT
[31] = tested on: DoHH2; assay: Anti-proliferative ATP assay; format: cell-based; conditions: Homo sapiens, DOHH-2, GCB-DLBCL, p53 WT/WT, BCL2 overexpression
[32] = tested on: Rec1; assay: Anti-proliferative ATP assay; format: cell-based; conditions: Homo sapiens, MCL, p53 WT/WT
[33] = tested on: SR; assay: Anti-proliferative ATP assay; format: cell-based; conditions: Homo sapiens, lymphoma, p53 WT/WT
[34] = tested on: H929; assay: Anti-proliferative ATP assay; format: cell-based; conditions: Homo sapiens, NCI-H929, MM, p53 WT/WT
[35] = tested on: Ku812; assay: Anti-proliferative ATP assay; format: cell-based; conditions: Homo sapiens, CML-BC, p53 WT/WT
[36] = tested on: EHEB; assay: Anti-proliferative ATP assay; format: cell-based; conditions: CLL, p53 WT/WT
[37] = tested on: RS4; 11 (p53 wt); conditions: read-out: RS4, Four day treatment
[38] = tested on: RS4; 11 (p53 wt); assay: cells; conditions: Homo sapiens, RS4-11, 96 h, read-out: RS4, 11 (p53 wt) IC50 (μM)
[39] = read-out: IC50 PC-3 (deleted p53)
[40] = Homo sapiens, SJSA-1, 96 h, read-out: IC50 SJSA-1 (p53 wild-type)
[41] = Homo sapiens, HCT-116, 96 h, read-out: IC50 HCT-116 (p53 wild-type)
[42] = Homo sapiens, LNCaP, 96 h, read-out: IC50 LNCAP (p53 wild-type)
[43] = Homo sapiens, HCT-116, 96 h, read-out: IC50 HCT-116 (p53—/—)
[44] = 96 h, read-out: IC50 PC-3 (deleted p53)

Structure (SMILES): CC(C)(C)C[C@H]1N[C@@H](C(=O)N[C@H]2C[C@@](C)(O)C2)[C@H](c2cccc(Cl)c2)[C@@]12C(=O)Nc1cc(F)c(F)cc12 [C035]
IC50 [1]: < 3 µM | IC50 ([2]; Homo sapiens, SJSA-1; read-out: IC50 SJSA-1 (p53 wild-type)): < 5 µM | IC50 ([3]; Homo sapiens, HCT-116; read-out: IC50 HCT-116 (p53 wild-type)): < 5 µM | IC50 ([4]; Homo sapiens, LNCaP; read-out: IC50 LNCAP (p53 wild-type)): < 5 µM | IC50 ([5]; Homo sapiens, HCT-116; read-out: IC50 HCT-116 (p53—/—)): > 10 µM | IC50 [6, 39]: > 10 µM

Structure (SMILES): CC(C)(C)C[C@@H]1N[C@@H](C(=O)NC2CCC(O)CC2)[C@H](c2cccc(Cl)c2F)[C@]12C(=O)Nc1cc(Cl)ccc12 (some centres unmarked) [MI-77301 (free amine)]
IC50 ([2]; Homo sapiens, SJSA-1, 96 h, read-out: IC50 SJSA-1 (p53 wild-type), Four day treatment): 0.058 ± 0.023 µM | IC50 ([3]; Homo sapiens, HCT-116, 96 h, read-out: IC50 HCT-116 (p53 wild-type), Four day treatment): 0.033 ± 0.01 µM | IC50 ([4]; Homo sapiens, LNCaP, 96 h, read-out: IC50 LNCAP (p53 wild-type), Four day treatment): 0.054 ± 0.008 µM | IC50 ([6]; 96 h, read-out: IC50 PC-3 (deleted p53), Four day treatment): 8.45 ± 0.35 µM | antitumor efficacy (tumor volume) [7]: comparable efficacy to a continuous dosing regimen | IC50 ([8]; 22Rv1, 96 h, 96-well format): 0.1 to 0.5 µM | IC50 [9]: > 10000 nM | IC50 [10]: > 10000 nM | IC50 [11]: 145 nM | IC50 [12]: 229 nM | IC50 [13]: 480 nM | IC50 [14]: 399 nM | IC50 [15]: 50 nM | IC50 [16]: 169 nM | IC50 [17]: 162 nM | IC50 [18]: > 10000 nM | IC50 [19]: 201 nM | IC50 [20]: 430 nM | IC50 [21]: 77 nM | IC50 [22]: > 10000 nM | IC50 [23]: 10000 nM | IC50 [24]: > 10000 nM | IC50 [25]: 14.7 nM | IC50 [26]: 45.4 nM | IC50 [27]: 28 nM | IC50 [28]: 280 nM | IC50 [29]: 90 nM | IC50 [30]: > 10000 nM | IC50 [31]: 39.3 nM | IC50 [32]: 738 nM | IC50 [33]: 14.9 nM | IC50 [34]: 114 nM | IC50 [35]: > 10000 nM | IC50 [36]: 70 nM | IC50 [37]: 0.102 µM and 0.081 µM

IC50 [1]: < 0.5 µM
Structure (SMILES): O=C(NC1CCC(O)CC1)[C@@H]1N[C@@H](c2ccccc2)[C@@]2(C(=O)Nc3cc(Cl)ccc32)[C@H]1c1cccc(Cl)c1F (single isomer, unassigned) [CB087-Isomer B]

Structure (SMILES): CC(C)(C)C[C@@H]1N[C@@H](C(=O)NC2CCC(O)CC2)[C@H](c2cccc(Cl)c2F)[C@]12C(=O)Nc1cc(Cl)ccc12 (some centres unmarked) [MI-77301 (TFA salt)]
IC50 ([2]; read-out: IC50 SJSA-1 (p53 wild-type); Four day treatment): 0.083 µM and 0.075 µM | IC50 ([3]; read-out: IC50 HCT-116 (p53 wild-type); Four day treatment): 0.048 ± 0.014 µM | IC50 ([4]; read-out: IC50 LNCAP (p53 wild-type); Four day treatment): 0.086 ± 0.016 µM | IC50 ([6]; read-out: IC50 PC-3 (deleted p53), Four day treatment): 13 ± 3 µM | IC50 ([38]; Four day treatment): 0.059 ± 0.025 µM

Structure (SMILES): CC(C)(C)C[C@@H]1N[C@@H](C(=O)N[C@H]2C[C@@](C)(O)C2)[C@H](c2cccc(Cl)c2F)[C@]12C(=O)Nc1cc(Cl)ccc12 [MI-519-6401]
IC50 [2, 40]: 0.4 µM | IC50 [3, 41]: 0.102 µM | IC50 [4, 42]: 0.33 µM | IC50 [5, 43]: 12.2 µM | IC50 [6, 44]: 10.5 µM | IC50 ([8]; 22Rv1, 96 h): 0.1 to 0.5 µM | IC50 [38]: 0.13 ± 0.02 µM

Structure (SMILES): CC(C)(C)C[C@@H]1N[C@@H](C(=O)NC2CCC(C)(O)CC2)[C@H](c2cccc(Cl)c2F)[C@]12C(=O)Nc1cc(Cl)ccc12 (some centres unmarked)
IC50 ([2]; Homo sapiens, SJSA-1, read-out: IC50 SJSA-1 (p53 wild-type)): 0.1 µM | IC50 ([3]; Homo sapiens, HCT-116, read-out: IC50 HCT-116 (p53 wild-type)): 0.1 µM | IC50 ([4]; Homo sapiens, LNCaP, read-out: IC50 LNCAP (p53 wild-type)): 0.2 µM | IC50 ([5]; Homo sapiens, HCT-116, read-out: IC50 HCT-116 (p53—/—)): 10.6 µM | IC50 [6, 39]: 11.1 µM

IC50 [1]: < 0.1 µM
Structure (SMILES): CCN1[C@@H](CC(C)(C)C)[C@@]2(C(=O)Nc3cc(Cl)ccc32)[C@@H](c2cccc(Cl)c2F)[C@@H]1C(=O)N[C@H]1C[C@@](C)(O)C1 [C29701]

Structure (SMILES): CC(C)(C)C[C@H]1N[C@@H](C(=O)N[C@H]2C[C@@](C)(O)C2)[C@H](c2cccc(Cl)c2F)[C@@]12C(=O)Nc1cc(Cl)ccc12 [MI-519-64]
IC50 [2, 40]: 0.27 µM | IC50 [3, 41]: 0.18 µM | IC50 [4, 42]: 0.5 µM | IC50 [5, 43]: 13.7 µM | IC50 [6, 44]: 6.1 µM

Reference: patent US8680132B2, “Spiro-oxindole MDM2 antagonists” (priority 2010, dated 2014)
